Experimental data taken from article PMC7253423, “Quassinoid analogs with enhanced efficacy for treatment of hematologic malignancies target the PI3Kγ isoform” (Communications Biology, 2020).

Tests used:
[1] = biological target: T1, PI3Kγ (Homo sapiens, UniProt P48736); assay: Competitive binding pull-down assay in SU-DHL-4 cell lysates, western blot; conditions: SU-DHL-4 lysates, biotin derivative alone
T1 construct: endogenous in cells; host or cells: SU-DHL-4 cells (lysate)
Experimental: (§1) Thirty microgram of purified GST-tagged proteins were pre-cleared with Dynabeads M-280 Streptavidin (Invitrogen, Carlsbad, CA, USA). […] The complexes were harvested and washed with PBS. The collected beads were mixed with SDS loading buffer for further analysis.
(§2) Western blot analyses were performed as previously described. Briefly, total cell lysates were separated by SDS-PAGE gel and transferred to nitrocellulose membrane. The membranes were blocked with 5% non-fat milk, probed with specific antibodies, and visualized using the Odyssey scanner (LiCor Inc., Lincoln, NE).

[2] = biological target: T2, GAPDH (Homo sapiens, UniProt P04406); assay: as above; conditions: SU-DHL-4 lysates
T2 construct: endogenous in cells; host or cells: SU-DHL-4 cells (lysate)
T2 sequence (P04406 whole entry): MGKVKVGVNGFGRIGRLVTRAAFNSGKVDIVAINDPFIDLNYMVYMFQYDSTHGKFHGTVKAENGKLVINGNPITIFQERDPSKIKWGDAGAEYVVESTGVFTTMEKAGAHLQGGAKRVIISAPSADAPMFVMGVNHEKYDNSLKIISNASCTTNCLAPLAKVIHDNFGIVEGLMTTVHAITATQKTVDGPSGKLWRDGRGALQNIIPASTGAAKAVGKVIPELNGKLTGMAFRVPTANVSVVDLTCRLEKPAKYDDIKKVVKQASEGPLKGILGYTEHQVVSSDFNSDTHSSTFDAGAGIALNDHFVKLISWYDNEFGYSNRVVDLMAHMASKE
Experimental: as §1, §2

[3] = biological target: T3, AKT1 (Homo sapiens, UniProt P31749); assay: as above; conditions: SU-DHL-4 lysates
T3 construct: endogenous in cells; host or cells: SU-DHL-4 cells (lysate)
T3 sequence (P31749 whole entry): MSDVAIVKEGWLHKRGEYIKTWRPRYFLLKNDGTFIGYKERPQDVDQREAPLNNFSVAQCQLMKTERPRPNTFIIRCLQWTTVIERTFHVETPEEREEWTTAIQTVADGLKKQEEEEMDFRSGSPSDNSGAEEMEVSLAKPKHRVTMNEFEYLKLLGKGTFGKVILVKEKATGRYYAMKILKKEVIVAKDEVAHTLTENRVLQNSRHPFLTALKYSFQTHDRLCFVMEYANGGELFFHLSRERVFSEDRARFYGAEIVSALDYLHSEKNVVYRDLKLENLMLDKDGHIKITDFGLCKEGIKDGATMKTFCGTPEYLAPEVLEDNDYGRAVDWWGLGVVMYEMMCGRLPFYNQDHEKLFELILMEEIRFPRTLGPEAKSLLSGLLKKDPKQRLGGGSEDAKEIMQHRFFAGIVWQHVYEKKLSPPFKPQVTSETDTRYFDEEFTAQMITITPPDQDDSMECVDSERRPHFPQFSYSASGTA
Experimental: as §1, §2

[4] = biological target: T4, JUP encoded protein (junction plakoglobin) (Homo sapiens, UniProt P14923); assay: Streptavidin pull-down and mass spectrometry; type: binding; conditions: Raji lysates, gene JUP
T4 construct: endogenous in cells; host or cells: Raji cells (lysate)
T4 sequence (P14923 whole entry): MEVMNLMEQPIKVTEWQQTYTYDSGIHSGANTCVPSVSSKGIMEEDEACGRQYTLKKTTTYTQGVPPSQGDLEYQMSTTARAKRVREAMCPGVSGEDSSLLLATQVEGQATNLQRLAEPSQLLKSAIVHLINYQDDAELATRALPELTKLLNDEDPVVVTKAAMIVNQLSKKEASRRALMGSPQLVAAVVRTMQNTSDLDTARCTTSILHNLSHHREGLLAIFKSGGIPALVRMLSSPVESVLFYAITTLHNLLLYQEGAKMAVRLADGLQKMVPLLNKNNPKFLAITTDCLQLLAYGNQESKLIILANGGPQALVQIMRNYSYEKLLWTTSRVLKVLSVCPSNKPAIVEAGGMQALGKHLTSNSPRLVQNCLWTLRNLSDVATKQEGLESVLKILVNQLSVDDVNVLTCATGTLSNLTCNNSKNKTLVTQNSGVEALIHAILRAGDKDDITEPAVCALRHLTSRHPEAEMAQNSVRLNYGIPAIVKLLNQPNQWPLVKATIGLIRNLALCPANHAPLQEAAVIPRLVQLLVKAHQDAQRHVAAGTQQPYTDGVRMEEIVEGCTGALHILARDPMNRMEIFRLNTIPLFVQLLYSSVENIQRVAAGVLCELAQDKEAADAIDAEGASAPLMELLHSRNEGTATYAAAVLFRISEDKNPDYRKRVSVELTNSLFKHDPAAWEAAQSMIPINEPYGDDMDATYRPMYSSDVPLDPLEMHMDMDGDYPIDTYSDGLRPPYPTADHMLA
Experimental: (§3) Two hundred million Raji cells were harvested and lysed with RIPA buffer [1% Nonidet P-40 (NP-40), 10 mM Tris (pH8.0), 2 mM EDTA, 150 mM NaCl, supplemented with protease inhibitors (1 mM phenylmethylsulphonyl fluoride (PMSF), 1 μg/ml each Aprotinin, Pepstatin, and Leupeptin)]. Twenty milligram lysates were combined with magnetic Streptavidin beads as well as biotin-conjugated compounds 51046, 51048, or 51052, respectively. The complexes were incubated overnight with rotation at 4 °C. The immunoprecipitated samples were washed with RIPA three times and resolved on an SDS-PAGE gel.
(§4) The following Mass Spectrometry proteomics resources and services are provided by the Quantitative Proteomics Resource Core at School of Medicine at the University of Pennsylvania. Briefly, the peptides were extracted from the gel band and analyzed with an Orbitrap Fusion (Thermo Fisher Scientific, San Jose, CA, USA) attached to an EasyLC 1000 system (Thermo Fisher Scientific, San Jose, CA, USA) at 400 nL/min. The raw MS data were processed using MaxQuant (Version 1.5.3.30)[61], and searched with the UniProt human database. Then the target-decoy approach was used to filter the search results, in which the false discovery rate was less than 1% at the peptide and protein level.

[5] = biological target: T5, PIK3C2B encoded protein (PI3KC2β) (Homo sapiens, UniProt O00750); assay: Streptavidin pull-down and mass spectrometry; type: binding; conditions: Raji lysates, gene PIK3C2B
T5 construct: endogenous in cells; host or cells: Raji cells (lysate)
T5 sequence (O00750 whole entry): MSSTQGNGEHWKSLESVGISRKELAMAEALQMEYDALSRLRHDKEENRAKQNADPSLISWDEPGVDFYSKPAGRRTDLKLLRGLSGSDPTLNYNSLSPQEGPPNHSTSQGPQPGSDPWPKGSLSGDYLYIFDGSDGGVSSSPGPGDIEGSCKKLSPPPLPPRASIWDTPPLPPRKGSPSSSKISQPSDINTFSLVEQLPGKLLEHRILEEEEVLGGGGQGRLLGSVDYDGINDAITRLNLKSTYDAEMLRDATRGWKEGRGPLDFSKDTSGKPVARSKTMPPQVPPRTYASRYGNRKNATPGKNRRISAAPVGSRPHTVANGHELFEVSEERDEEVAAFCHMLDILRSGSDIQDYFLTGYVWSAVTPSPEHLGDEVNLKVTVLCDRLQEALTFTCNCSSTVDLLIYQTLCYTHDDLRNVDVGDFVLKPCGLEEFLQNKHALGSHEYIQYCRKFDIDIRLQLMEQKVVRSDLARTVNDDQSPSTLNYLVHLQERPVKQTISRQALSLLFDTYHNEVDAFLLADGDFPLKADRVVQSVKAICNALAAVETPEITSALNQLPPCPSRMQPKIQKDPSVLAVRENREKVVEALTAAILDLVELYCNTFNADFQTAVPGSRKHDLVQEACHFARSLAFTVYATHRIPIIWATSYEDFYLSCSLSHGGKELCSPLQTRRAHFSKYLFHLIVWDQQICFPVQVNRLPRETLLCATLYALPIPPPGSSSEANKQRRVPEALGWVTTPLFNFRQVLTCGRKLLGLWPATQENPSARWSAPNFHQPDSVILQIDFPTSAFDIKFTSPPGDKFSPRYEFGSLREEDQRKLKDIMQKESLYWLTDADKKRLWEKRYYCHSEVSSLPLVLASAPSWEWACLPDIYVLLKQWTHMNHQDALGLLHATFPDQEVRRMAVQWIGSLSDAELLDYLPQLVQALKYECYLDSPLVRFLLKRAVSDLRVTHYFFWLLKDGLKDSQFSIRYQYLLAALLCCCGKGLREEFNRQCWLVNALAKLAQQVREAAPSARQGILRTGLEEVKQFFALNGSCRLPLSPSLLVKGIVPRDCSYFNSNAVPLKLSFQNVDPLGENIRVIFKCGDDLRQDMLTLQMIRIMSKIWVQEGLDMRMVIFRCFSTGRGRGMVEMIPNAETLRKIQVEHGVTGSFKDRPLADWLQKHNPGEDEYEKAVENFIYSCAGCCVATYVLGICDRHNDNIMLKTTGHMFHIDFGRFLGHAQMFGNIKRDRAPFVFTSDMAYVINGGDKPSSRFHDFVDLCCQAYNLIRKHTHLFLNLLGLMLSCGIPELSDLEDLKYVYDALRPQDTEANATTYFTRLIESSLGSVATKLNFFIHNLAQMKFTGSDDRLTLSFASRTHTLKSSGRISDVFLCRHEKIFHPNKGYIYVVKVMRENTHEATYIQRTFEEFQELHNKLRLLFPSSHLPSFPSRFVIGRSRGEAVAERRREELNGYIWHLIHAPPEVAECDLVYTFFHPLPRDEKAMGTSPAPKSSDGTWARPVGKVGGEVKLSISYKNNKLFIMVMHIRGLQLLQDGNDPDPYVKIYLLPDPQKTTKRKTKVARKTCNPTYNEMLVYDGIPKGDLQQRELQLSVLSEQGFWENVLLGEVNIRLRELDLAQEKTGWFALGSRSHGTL
Experimental: as §3, §4

T1 sequence (P48736 whole entry): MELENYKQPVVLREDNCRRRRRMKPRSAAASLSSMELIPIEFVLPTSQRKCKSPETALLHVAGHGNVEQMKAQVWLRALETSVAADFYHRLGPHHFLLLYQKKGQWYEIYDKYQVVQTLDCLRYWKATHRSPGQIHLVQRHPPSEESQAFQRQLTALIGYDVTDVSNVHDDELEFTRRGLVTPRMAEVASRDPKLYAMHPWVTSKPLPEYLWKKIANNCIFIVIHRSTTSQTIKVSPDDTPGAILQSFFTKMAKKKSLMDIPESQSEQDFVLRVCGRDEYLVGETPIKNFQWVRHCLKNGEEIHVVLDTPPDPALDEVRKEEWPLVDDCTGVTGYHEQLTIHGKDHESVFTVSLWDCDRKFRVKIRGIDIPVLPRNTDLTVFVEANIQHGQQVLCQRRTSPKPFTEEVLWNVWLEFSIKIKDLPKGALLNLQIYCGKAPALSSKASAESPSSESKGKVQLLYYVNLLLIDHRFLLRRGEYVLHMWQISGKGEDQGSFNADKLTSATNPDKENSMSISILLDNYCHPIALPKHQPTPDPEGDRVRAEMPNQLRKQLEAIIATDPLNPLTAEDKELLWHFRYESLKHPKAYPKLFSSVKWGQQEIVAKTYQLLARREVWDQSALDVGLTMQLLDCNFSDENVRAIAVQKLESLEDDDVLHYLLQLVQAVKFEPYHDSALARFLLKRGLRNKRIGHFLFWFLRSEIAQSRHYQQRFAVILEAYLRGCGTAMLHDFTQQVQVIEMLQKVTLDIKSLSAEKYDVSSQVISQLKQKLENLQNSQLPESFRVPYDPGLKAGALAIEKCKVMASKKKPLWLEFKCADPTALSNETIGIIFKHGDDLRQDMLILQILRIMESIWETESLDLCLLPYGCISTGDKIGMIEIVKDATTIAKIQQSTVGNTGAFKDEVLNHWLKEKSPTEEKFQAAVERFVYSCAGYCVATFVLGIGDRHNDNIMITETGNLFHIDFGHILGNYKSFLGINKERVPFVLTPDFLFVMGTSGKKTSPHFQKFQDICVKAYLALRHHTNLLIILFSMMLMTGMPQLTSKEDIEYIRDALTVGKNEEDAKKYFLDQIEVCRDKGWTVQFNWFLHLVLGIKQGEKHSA

For `COC(=O)C12OCC34C(CC5C(C)=C(OC(=O)CCCCC6SCC7NC(=O)NC76)C(=O)CC5(C)C3C(O)C1O)OC(=O)C(OC(=O)C=C(C)C)C24` (centres unmarked) [compound 51048], the “binding activity with PI3Kγ” value [1] was “relatively strong”, the GAPDH pulled down [2] was “little or no detectable levels” and the AKT1 pulled down [3] was “little or no detectable levels”. For the same compound, the “Score (sum of the ion scores of all peptides identified)” value [4] was 11.324 and the “Score (sum of the ion scores of all peptides identified)” value [5] was 5.9631.
